Source: patent publication US8323911B2, “High throughput assay for discovering new inhibitors of the GIRK1/4 channel” (University of South Carolina, priority 2010, dated 2012)
Values belong to the molecule of their own block, whether it stands above or below them. Ends that are not written are not given here.

Experiments:
GIRK1/4 channel = target: T1, GIRK1/4 channel (Mus musculus, UniProt P48545+P63250); test: GIRK1/4 channel FLIPR assay (DiBAC4(3) fluorescence, carbachol-stimulated HL-1 cells); type: cell-based; conditions: for IC50: 5 min pretreatment, read-out: IC50 for drug block of the carbachol signal; for inhibition of the carbachol signal during pretreatment: 1 μM; for block of the carbachol-sensitive fluorescence signal: at the concentrations tested
T1 construct: consistent with the expression of GIRK1/4 channels in the HL-1 cells; endogenous in cells; host or cells: HL-1 immortalized cardiac atrial cells
T1 sequence (P63250 1-501): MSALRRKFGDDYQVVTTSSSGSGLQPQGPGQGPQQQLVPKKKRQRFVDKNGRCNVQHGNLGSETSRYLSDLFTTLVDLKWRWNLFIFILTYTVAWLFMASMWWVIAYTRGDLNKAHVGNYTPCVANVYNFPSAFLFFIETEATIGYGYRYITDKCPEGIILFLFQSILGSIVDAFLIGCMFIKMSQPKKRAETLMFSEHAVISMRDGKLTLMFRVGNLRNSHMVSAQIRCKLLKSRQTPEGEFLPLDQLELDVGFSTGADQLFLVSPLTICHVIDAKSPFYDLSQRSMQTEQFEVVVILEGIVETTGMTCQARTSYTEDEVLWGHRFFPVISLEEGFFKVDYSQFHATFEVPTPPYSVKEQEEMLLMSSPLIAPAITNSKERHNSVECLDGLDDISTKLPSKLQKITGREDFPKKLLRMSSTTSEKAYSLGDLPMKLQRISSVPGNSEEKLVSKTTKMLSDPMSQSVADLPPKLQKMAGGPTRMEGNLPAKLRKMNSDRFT
T1 sequence (P48545 1-419): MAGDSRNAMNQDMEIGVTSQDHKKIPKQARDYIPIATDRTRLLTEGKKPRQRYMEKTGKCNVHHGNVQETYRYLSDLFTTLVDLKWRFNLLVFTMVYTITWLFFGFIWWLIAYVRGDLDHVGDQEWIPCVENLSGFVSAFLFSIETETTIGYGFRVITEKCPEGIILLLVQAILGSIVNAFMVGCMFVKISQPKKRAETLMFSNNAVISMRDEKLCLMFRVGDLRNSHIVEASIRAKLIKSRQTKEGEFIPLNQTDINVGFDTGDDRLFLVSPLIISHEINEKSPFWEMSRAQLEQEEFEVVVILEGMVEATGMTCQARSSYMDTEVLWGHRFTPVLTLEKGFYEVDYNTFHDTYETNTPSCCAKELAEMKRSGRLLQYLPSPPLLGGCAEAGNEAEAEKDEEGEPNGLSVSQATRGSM
Procedure: HL-1 cells were incubated for 1 h in Tyrode's solution containing 5 μM DiBAC4(3) (AnaSpec, Fremont, Calif.) and fluorescent signals recorded using a Synergy2 microplate reader (BioTek, Winosski, Vt.) at 28° C. Test compounds were dissolved in DMSO at a stock concentration of 10 mM, diluted to various concentrations, and applied to the cells for 5 min prior to the fluorescent measurements. DiBAC4(3) was present in all experimental solutions. DMSO, up to 1% in Tyrode's solution, had no adverse effects on the cell response. Carbachol or control solution (20 μL) was added to each well (total volume=220 μL) at time zero using the Synergy2 injector system. Data points were collected at 10-s intervals over a 300-s sampling period at excitation and emission wavelengths of 480 and 520 nm, respectively. Positive (carbachol or carbachol+1 mM BaCl2) and negative (water or DMSO) control experiments were performed to calculate Z′ factors. The Z′ factor is defined as Z′=1=−(3σP+3σN)/|μP−μN|, where μP and μN are the means of the positive control and negative control signals, and σp and σN are the standard deviations of the positive control and negative control signals, respectively. Plates used for Z′ factor determination contained 2 rows each of positive and negative controls. Dose-response curves for selected compounds were obtained and drug potencies determined by fitting the data with the following curve: Max/(1+([drug]/IC50)^k), where the IC50 is the concentration of the compound producing a 50% decrease in the maximal carbachol response (Max), and k is the slope factor. Interference of the test compounds with the DiBAC4(3) fluorescence was determined in the absence of cells by adding various concentrations of the compounds to Tyrode's solution containing the dye.

IK,Ach (GIRK1/4 channel) = target: T2, IK,Ach (GIRK1/4 channel) (Mus musculus, UniProt P48545+P63250); test: Patch-clamp recording of whole-cell IK,Ach currents in HL-1 cells; type: cell-based
T2 construct: consistent with the expression of GIRK1/4 channels in the HL-1 cells; endogenous in cells; host or cells: HL-1 immortalized cardiac atrial cells
T2 sequence (P63250 1-501): T1 sequence (P63250 1-501)
T2 sequence (P48545 1-419): T1 sequence (P48545 1-419)
Excerpt: A patch-clamp method was used to record the whole-cell IK,Ach using L/M EPC-7 (Adams & List Associates, Great Neck, N.Y.) and Axopatch 200 (Axon Instruments, Sunnyvale, Calif.) amplifiers. The procedures for measuring cardiac K^+ channels have been described in Walsh K B, Zhang J: Neonatal rat cardiac fibroblasts express three types of voltage-gated K^+ channels: regulation of a transient outward current by protein kinase C, Am J Physiol Heart Circ Physiol 2008; 294:H1010-H1017, incorporated by reference herein. Pipettes were made from borosilicate glass capillaries (World Precision Instruments, Sarasota, Fla.) and had resistances of 1 to 2 Mohms when filled with internal solution. All experiments were conducted on isolated, noncoupled HL-1 cells at room temperature (22-24° C.). For the measurement of IK,Ach, cells were placed in a normal Tyrode's solution consisting of 132 mM NaCl, 5 mM KCl, 1 mM CaCl2, 1 mM MgCl2, 5 mM dextrose, and 5 mM HEPES (pH 7.4; with NaOH) (280 mOsm). INa was blocked with tetrodotoxin (10 μM) and the Na^+ channels inactivated by maintaining the myocytes at a holding potential of −40 mV. L-type Ca^2+ channels were blocked with 500 nM nisoldipine. The internal solution was made from 50 mM KCl, 60 mM K^+-glutamate, 2 mM MgCl2, 1 mM CaCl2, 11 mM EGTA, 3 mM adenosine triphosphate (ATP), and 10 mM HEPES (pH 7.3; with KOH) (280 mOsm).
Membrane currents were recorded with 12-bit analog/digital converters (Axon Instruments). Data were sampled at 5 KHz and filtered at 1 KHz with a low-pass Bessel filter (Frequency Devices, Ottawa, Ill.). Series resistance was compensated to give the fastest possible capacity transient without producing oscillations. With this procedure, more than 70% of the series resistance could be compensated. Following the measurement of the HL-1 cell background current, IK,Ach was activated by the addition 10 μM carbachol using a rapid perfusion system. IK,Ach was defined as the BaCl2-sensitive current (see FIGS. 1A-1C, illustrating expression of GIRK1/4 channels in HL-1 cells). IK,Ach blockers were added and inhibition determined immediately after carbachol-induced activation. This limited errors in quantifying drug block due to GIRK1/4 channel desensitization and rundown. Averaged current values presented are means±SE.

GIRK channels = conditions: HEK-293 cells; cited from earlier work
IK,Ach = conditions: patch clamp analysis; read-out: IC50 measured in primary cultures of guinea pig atrial myocytes; cited from earlier work

Molecule: CN1[C@@H]2CC[C@H]1C[C@@H](OC(=O)C(CO)c1ccccc1)C2 (some centres unmarked) [atropine]
inhibition of the carbachol signal during pretreatment (GIRK1/4 channel): inhibited

Molecule: CC(C)(C)NCC(O)COc1ccccc1C(=O)CCc1ccccc1 (centres unmarked) [TBPP, 1-{2-[3-(tert-butylamino)-2-hydroxypropoxy]phenyl}-3-phenyl-1-propanone]
IC50 (GIRK1/4 channel; HL-1 cells, DiBAC4(3)): 2 µM

Molecule: [Ba+2].[Cl-].[Cl-] [BaCl2]
block of carbachol-activated inward rectifying current (IK,Ach (GIRK1/4 channel); 0.5 mM BaCl2): completely blocked
block of the carbachol signal (GIRK1/4 channel; 1 mM): blocked

Molecule: N/C(=N\C(=O)c1nc(Cl)c(N)nc1N)NCc1ccc(Cl)c(Cl)c1 [DCB, dichlorobenzamil]
IC50 (GIRK1/4 channel; HL-1 cells, DiBAC4(3)): 20 µM

Molecule: CN1[C@@H]2C[C@@H](OC(=O)[C@H](CO)c3ccccc3)C[C@H]1[C@@H]1O[C@@H]12 [scopolamine]
inhibition of the carbachol signal during pretreatment (GIRK1/4 channel): inhibited

Molecule: [5-(2-methyl-5-fluorophenyl)furan-2-ylcarbonyl]guanidine [KR-32568]
change in the carbachol-sensitive fluorescence (GIRK1/4 channel; drug concentrations up to 1 μM): no significant change

Molecule: CC(C)N(C)c1nc(N)c(C(=O)N=C(N)N)nc1Cl [MIBA, 5-(N-methyl-N-isopropyl)-amiloride]
IC50 (GIRK1/4 channel; HL-1 cells, DiBAC4(3)): 2 µM

Molecule: CCN(c1nc(N)c(C(=O)N=C(N)N)nc1Cl)C(C)C [EIPA, 5-(N-ethyl-N-isopropyl)-amiloride]
IC50 (GIRK1/4 channel; HL-1 cells, DiBAC4(3)): 0.8 µM

Molecule: NC(N)=NC(=O)c1nc(Cl)c(N2CCCCCC2)nc1N [HMA, 5-(N,N-hexamethylene)-amiloride]
IC50 (GIRK1/4 channel; HL-1 cells, DiBAC4(3)): 0.9 µM

Molecule: COc1ccc(CC(=O)Nc2cc3c(cc2[N+](=O)[O-])OC(C)(C)[C@H](O)[C@H]3NC2CC2)cc1 [NIP-142]
concentrations blocking GIRK channels (GIRK channels): nanomolar concentrations

Molecule: tertiapin (ALCNCNRIIIPHMCWKKCGKK; ends and bridges not checked; cysteine pairing not given here; UniProt P56587 1-21, looked up) [Kir toxin]
block of IK,Ach current (IK,Ach (GIRK1/4 channel); 100 nM): strongly blocked

Second part, led by results:

IC50 (GIRK1/4 channel; HL-1 cells, DiBAC4(3)): 24 µM
Molecule: C=C[C@H]1C[N@@]2CC[C@H]1C[C@@H]2[C@@H](O)c1ccnc2ccc(OC)cc12 [quinidine]

IC50 (GIRK1/4 channel; HL-1 cells, DiBAC4(3)): 16 µM
Molecule: CCCCCCCN(CC)CCCC(O)c1ccc(NS(C)(=O)=O)cc1 (centres unmarked) [ibutilide]

IC50 (IK,Ach (GIRK1/4 channel); patch clamp, measured at −100 mV, 10 μM carbachol, read-out: IC50 for block of IK,Ach current): 2 µM
IC50 (GIRK1/4 channel; HL-1 cells, DiBAC4(3)): 3 µM
Molecule: CCCNCC(O)COc1ccccc1C(=O)CCc1ccccc1 (centres unmarked) [propafenone]

IC50 (GIRK1/4 channel; HL-1 cells, DiBAC4(3)): 13 µM
Molecule: NC(=Nc1ccccc1)NC(=O)c1nc(Cl)c(N)nc1N [phenamil]

block of the carbachol-sensitive fluorescence signal (GIRK1/4 channel): no block
Molecule: COc1ccc(Cl)cc1C(=O)NCCc1ccc(S(=O)(=O)NC(=O)NC2CCCCC2)cc1 [glybenclamide]

block of the carbachol-sensitive signal (GIRK1/4 channel; concentrations up to 100 μM): only a partial block
Molecule: N=C(N)NC(=O)c1nc(Cl)c(N)nc1N [amiloride]

block of the carbachol-sensitive fluorescence signal (GIRK1/4 channel): no block
Molecule: CC(C)NCC(O)c1ccc(NS(C)(=O)=O)cc1 (centres unmarked) [sotalol]

peak carbachol-induced fluorescent signal (F/FO) (GIRK1/4 channel; 10 μM carbachol, mean±SD, 4 plates): 0.956±0.008
EC50 (GIRK1/4 channel; HL-1 cells, DiBAC4(3), read-out: EC50 for the carbachol-sensitive fluorescent signal (activation of GIRK1/4 channel)): 0.11 µM
carbachol-mediated decrease in the fluorescent signal (GIRK1/4 channel; [K]o increased to 20 mM): completely eliminated
fold increase in the carbachol-sensitive signal (GIRK1/4 channel; extracellular K+ reduced from 5 mM to 1 mM, 3 plates): 2.0±0.1 fold
Molecule: C[N+](C)(C)CCOC(N)=O [carbachol]

block of IK,Ach current (IK,Ach (GIRK1/4 channel); 100 μM): strongly blocked
IC50 (GIRK1/4 channel; HL-1 cells, DiBAC4(3)): 56 µM
Molecule: O=C(NCC1CCCCN1)c1cc(OCC(F)(F)F)ccc1OCC(F)(F)F (centres unmarked) [flecainide]
IC50 (IK,Ach): 20 µM

block of the carbachol-sensitive fluorescence signal (GIRK1/4 channel): no block
Molecule: CCN(CC)CCNC(=O)c1ccc(N)cc1 [procainamide]

IC50 (GIRK1/4 channel; HL-1 cells, DiBAC4(3)): 13 µM
Molecule: NC(=NCc1ccccc1)NC(=O)c1nc(Cl)c(N)nc1N [benzamil]
